Source: ChEMBL document CHEMBL4630901 (2021)

Columns and labels:
[1] = target: T1, Prostaglandin F2-alpha receptor (Homo sapiens, UniProt P43088); experiment: Bayer inhouse assay (human)
[2] = target: 5-hydroxytryptamine receptor 1D (Homo sapiens) (UniProt P28221); details: Compound concentration 10.0 uM
[3] = target: D(3) dopamine receptor (Homo sapiens) (UniProt P35462); details: Compound concentration 10.0 uM
[4] = target: Glutamate receptor ionotropic, kainate (Rattus norvegicus) (UniProt P22756+Q01812+P42260+P42264+Q63273); experiment: Inhibition of Glutamate, Kainate at 10 µM in the Eurofins-Panlabs radioligand binding assay (Eurofins_assay_232700); details: Compound concentration 10.0 uM
Homo sapiens = species on record: Homo sapiens; experiment: Inhibition of Nicotinic Acetylcholine at compound concentration of 10.0 uM in the Eurofins-Panlabs radioligand binding assay (Eurofins_assay_258590); type: protein-complex assay; details: Compound concentration 10.0 uM
[5] = target: T1, Prostaglandin F2-alpha receptor; experiment: Prostanoid FP Eurofins-Panlabs radioligand binding assay; parameters: ligand concentration 1 nM
[6] = target: T2, Prostaglandin D2 receptor 2 (Homo sapiens) (UniProt Q9Y5Y4); experiment: Prostanoid CRTH2 Eurofins-Panlabs radioligand binding assay; parameters: ligand concentration 1 nM
T2 sequence (whole entry): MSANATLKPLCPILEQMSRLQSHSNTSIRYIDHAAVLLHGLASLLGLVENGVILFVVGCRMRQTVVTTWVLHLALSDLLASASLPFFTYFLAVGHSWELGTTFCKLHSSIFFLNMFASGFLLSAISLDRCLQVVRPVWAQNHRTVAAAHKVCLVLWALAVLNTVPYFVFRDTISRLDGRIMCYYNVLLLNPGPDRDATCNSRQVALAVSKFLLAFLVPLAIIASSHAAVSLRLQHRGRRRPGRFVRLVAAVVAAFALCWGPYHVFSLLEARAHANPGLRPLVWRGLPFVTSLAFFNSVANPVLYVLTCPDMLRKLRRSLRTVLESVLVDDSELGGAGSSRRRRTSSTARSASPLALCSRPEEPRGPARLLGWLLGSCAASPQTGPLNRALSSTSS

[7] = target: T3, Prostaglandin D2 receptor (Homo sapiens) (UniProt Q13258); experiment: Prostanoid DP Eurofins-Panlabs radioligand binding assay; parameters: ligand concentration 2 nM
T3 sequence (whole entry): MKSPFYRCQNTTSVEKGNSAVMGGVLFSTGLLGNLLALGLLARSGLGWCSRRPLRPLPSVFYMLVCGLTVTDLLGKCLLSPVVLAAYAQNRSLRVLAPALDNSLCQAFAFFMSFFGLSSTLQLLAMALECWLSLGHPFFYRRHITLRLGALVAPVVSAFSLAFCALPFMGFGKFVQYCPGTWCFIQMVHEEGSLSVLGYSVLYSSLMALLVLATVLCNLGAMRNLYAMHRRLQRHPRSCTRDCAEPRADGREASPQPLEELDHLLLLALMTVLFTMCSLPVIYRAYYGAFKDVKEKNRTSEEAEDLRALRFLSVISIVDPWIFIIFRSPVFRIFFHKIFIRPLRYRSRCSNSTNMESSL

[8] = target: Prostaglandin E2 receptor EP2 subtype (Homo sapiens) (UniProt P43116); experiment: Prostanoid EP2 Eurofins-Panlabs radioligand binding assay; parameters: ligand concentration 4 nM
Prostaglandin E2 receptor EP2 subtype (Homo sapiens), sequence (P43116 whole entry): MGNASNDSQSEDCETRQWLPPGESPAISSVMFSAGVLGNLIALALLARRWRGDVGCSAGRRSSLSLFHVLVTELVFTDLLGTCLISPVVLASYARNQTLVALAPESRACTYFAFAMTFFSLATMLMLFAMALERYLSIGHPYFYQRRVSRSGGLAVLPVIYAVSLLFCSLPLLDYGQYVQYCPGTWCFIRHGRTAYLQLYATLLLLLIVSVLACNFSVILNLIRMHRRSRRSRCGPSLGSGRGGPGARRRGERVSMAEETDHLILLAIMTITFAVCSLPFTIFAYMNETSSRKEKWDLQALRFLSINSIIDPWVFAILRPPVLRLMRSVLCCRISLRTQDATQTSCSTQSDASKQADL

[9] = target: Histamine H4 receptor (Homo sapiens) (UniProt Q9H3N8); details: Compound concentration 10.0 uM
Histamine H4 receptor (Homo sapiens), sequence (Q9H3N8 whole entry): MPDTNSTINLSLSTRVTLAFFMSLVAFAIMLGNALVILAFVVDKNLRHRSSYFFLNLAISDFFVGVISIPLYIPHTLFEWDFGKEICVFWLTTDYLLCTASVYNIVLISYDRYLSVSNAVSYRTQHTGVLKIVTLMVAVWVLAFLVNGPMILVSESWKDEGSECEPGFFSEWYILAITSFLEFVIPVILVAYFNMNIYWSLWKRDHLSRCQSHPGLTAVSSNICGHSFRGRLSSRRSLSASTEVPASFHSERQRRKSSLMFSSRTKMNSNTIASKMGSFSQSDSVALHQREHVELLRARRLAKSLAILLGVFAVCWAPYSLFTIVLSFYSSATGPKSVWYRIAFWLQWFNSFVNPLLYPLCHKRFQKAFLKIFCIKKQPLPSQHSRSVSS

[10] = target: Beta-3 adrenergic receptor (Homo sapiens) (UniProt P13945); details: Compound concentration 10.0 uM
Beta-3 adrenergic receptor (Homo sapiens), sequence (P13945 whole entry, looked up): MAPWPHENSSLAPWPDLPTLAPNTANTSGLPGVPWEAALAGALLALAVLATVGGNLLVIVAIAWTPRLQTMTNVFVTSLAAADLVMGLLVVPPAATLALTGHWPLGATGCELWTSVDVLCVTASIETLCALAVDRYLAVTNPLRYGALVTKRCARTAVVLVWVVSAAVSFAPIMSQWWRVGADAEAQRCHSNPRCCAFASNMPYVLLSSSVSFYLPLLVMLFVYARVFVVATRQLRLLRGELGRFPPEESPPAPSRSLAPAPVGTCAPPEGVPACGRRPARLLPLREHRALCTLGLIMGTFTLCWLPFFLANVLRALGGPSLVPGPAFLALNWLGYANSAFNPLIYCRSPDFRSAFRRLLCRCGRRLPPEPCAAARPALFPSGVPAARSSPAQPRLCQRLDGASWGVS

[11] = target: Adenosine receptor A1 (Homo sapiens) (UniProt P30542); details: Compound concentration 10.0 uM
Adenosine receptor A1 (Homo sapiens), sequence (P30542 whole entry): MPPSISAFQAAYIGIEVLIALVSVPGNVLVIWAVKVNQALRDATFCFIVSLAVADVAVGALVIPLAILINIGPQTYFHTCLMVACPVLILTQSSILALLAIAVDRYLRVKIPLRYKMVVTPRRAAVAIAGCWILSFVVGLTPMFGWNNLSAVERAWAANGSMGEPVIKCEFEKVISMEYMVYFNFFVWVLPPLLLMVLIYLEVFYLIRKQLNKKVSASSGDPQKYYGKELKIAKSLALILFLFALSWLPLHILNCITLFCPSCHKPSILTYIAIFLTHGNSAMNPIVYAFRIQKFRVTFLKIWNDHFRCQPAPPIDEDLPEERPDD

[12] = target: Beta-1 adrenergic receptor (Homo sapiens) (UniProt P08588); details: Compound concentration 10.0 uM
[13] = target: B2 bradykinin receptor (Homo sapiens) (UniProt P30411); details: Compound concentration 10.0 uM
B2 bradykinin receptor (Homo sapiens), sequence (P30411 whole entry): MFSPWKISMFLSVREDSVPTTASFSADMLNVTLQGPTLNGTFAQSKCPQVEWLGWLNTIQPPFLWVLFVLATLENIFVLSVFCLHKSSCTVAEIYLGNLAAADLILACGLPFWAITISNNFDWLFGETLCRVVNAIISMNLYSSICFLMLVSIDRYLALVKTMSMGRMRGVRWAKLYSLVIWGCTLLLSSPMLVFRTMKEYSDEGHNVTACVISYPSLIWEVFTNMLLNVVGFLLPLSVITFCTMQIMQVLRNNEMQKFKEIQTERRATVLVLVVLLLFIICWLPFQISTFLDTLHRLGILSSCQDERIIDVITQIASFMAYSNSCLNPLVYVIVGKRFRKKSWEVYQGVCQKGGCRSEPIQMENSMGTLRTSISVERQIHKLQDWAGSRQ

[14] = target: D(2) dopamine receptor (Homo sapiens) (UniProt P14416); details: Compound concentration 10.0 uM
D(2) dopamine receptor (Homo sapiens), sequence (P14416 whole entry): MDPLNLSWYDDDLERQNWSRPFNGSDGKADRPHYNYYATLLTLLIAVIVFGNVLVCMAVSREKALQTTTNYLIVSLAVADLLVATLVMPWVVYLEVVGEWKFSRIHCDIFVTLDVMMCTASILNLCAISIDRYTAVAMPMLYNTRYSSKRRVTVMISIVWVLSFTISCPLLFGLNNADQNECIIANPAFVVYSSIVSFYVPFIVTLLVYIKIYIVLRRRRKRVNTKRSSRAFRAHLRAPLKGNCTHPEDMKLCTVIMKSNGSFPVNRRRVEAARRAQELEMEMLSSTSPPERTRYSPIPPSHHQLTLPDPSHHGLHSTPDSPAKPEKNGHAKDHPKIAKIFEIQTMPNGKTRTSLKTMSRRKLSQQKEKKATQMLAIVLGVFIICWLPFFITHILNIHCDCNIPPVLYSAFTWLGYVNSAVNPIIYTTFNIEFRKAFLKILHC

[15] = target: Muscarinic acetylcholine receptor M3 (Homo sapiens) (UniProt P20309); details: Compound concentration 10.0 uM
Muscarinic acetylcholine receptor M3 (Homo sapiens), sequence (P20309 whole entry, looked up): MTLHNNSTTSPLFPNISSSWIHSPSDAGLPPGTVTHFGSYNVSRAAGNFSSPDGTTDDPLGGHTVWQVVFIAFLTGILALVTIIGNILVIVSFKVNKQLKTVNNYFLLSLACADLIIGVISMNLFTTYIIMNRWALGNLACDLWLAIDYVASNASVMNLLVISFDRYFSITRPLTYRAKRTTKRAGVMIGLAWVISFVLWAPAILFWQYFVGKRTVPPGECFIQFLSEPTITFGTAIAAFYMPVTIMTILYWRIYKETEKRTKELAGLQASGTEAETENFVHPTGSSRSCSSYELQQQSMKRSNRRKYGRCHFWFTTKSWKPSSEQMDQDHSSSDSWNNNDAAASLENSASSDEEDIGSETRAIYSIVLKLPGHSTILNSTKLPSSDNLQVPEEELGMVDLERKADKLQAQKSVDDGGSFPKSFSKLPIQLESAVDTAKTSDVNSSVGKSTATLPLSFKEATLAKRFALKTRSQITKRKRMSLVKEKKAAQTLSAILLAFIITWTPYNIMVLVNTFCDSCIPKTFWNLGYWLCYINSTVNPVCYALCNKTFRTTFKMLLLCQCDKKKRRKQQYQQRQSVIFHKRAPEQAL

[16] = target: Mu-type opioid receptor (Homo sapiens) (UniProt P35372); details: Compound concentration 10.0 uM
Mu-type opioid receptor (Homo sapiens), sequence (P35372 whole entry): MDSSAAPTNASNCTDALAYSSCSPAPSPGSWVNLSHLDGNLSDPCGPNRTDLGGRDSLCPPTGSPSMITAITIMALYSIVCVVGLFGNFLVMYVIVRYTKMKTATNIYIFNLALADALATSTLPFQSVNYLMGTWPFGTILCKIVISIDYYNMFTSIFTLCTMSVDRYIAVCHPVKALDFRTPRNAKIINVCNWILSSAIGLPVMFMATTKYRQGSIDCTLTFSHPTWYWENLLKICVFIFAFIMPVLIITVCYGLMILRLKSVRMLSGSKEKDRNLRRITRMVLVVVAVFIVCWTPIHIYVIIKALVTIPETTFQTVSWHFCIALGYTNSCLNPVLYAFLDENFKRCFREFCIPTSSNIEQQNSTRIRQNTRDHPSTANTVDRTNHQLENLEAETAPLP

[17] = target: 5-hydroxytryptamine receptor 2B (Homo sapiens) (UniProt P41595); details: Compound concentration 10.0 uM
5-hydroxytryptamine receptor 2B (Homo sapiens), sequence (P41595 whole entry): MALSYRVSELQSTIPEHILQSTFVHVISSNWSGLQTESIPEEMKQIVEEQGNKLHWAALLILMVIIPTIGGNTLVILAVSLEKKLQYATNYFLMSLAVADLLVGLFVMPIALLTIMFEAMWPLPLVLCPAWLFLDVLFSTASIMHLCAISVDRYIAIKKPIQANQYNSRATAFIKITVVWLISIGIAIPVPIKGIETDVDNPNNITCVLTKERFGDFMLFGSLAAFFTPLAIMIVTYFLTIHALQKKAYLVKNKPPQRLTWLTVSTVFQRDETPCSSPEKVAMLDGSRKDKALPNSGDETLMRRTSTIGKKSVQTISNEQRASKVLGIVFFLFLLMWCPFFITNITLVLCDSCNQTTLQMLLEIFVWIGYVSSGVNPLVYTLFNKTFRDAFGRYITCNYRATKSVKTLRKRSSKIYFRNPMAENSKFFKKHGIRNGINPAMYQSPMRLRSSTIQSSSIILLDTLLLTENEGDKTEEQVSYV

[18] = target: Sodium-dependent noradrenaline transporter (Homo sapiens) (UniProt P23975); details: Compound concentration 10.0 uM
[19] = target: Sodium-dependent serotonin transporter (Homo sapiens) (UniProt P31645); details: Compound concentration 10.0 uM
[20] = target: Glucocorticoid receptor (Homo sapiens) (UniProt P04150); details: Compound concentration 10.0 uM
[21] = target: Beta-3 adrenergic receptor (Homo sapiens) (UniProt P13945); details: Compound concentration 10.0 uM; remark: listed apart in the source
[22] = target: D(2) dopamine receptor (Homo sapiens) (UniProt P14416); details: Compound concentration 10.0 uM; remark: listed apart in the source
[23] = target: Insulin receptor (Homo sapiens) (UniProt P06213); details: Rattus norvegicus; Compound concentration 10.0 uM
[24] = target: T4, Alpha-2C adrenergic receptor (Homo sapiens) (UniProt P18825); details: Compound concentration 10.0 uM
T4 sequence (whole entry): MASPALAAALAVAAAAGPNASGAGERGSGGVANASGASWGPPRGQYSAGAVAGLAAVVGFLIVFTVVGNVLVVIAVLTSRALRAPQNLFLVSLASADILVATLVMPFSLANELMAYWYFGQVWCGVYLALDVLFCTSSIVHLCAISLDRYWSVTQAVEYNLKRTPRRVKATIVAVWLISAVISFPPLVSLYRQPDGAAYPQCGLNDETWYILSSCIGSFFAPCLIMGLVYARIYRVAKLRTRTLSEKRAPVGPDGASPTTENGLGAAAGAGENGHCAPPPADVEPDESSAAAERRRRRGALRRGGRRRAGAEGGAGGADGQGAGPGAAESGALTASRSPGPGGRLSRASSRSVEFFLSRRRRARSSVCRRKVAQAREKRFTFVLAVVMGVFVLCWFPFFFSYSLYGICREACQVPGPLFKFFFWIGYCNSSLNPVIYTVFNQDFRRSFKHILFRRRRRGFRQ

[25] = target: Motilin receptor (Homo sapiens) (UniProt O43193); details: Compound concentration 10.0 uM
[26] = Compound concentration 0.001 uM

T1 sequence (P43088 whole entry): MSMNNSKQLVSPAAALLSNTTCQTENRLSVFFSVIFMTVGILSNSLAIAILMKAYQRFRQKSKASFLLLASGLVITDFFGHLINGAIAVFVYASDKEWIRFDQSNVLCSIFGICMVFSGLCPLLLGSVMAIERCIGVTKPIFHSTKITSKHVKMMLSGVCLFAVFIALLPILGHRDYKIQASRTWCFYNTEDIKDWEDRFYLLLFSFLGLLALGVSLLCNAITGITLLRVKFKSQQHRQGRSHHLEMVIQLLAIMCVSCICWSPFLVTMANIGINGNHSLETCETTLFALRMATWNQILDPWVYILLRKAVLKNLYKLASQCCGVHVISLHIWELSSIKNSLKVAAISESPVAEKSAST
5-hydroxytryptamine receptor 1D (Homo sapiens), sequence (P28221 whole entry): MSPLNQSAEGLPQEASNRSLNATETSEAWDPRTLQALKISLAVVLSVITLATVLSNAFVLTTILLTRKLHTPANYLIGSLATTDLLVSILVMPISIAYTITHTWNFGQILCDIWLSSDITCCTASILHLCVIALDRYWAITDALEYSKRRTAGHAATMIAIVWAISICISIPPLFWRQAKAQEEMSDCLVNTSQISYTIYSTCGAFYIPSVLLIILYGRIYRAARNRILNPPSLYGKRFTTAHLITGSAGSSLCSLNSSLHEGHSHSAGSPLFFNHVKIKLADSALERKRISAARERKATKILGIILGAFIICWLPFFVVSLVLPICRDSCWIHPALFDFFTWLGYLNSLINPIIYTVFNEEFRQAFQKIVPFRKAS
D(3) dopamine receptor (Homo sapiens), sequence (P35462 whole entry): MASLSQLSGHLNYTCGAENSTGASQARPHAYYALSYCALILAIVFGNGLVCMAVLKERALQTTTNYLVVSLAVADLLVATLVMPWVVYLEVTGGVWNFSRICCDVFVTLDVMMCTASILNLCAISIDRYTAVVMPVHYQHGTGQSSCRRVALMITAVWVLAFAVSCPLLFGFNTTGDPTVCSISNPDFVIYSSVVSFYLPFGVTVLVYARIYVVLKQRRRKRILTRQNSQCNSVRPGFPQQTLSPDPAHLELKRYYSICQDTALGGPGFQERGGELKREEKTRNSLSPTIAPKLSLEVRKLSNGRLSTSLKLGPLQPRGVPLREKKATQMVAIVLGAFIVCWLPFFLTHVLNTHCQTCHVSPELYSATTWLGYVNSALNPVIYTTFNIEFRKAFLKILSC

Cc1c(N2CCNCC2)nc2ccc(Br)cc2c1C(=O)NC[C@H](CCC(=O)O)c1ccccc1Cl [BAY-403]
IC50 [1]: 1.2 µM (not active)
inhibition [2]: 9.12%
inhibition [3]: 3.81%

Cc1c(N2CCCC2)nc2ccc(Br)cc2c1C(=O)NC[C@H](CCC(=O)O)c1ccccc1Cl [BAY-6672]
inhibition [4]: 11%
inhibition (Homo sapiens): 3%
inhibition [5, 26]: 7%
inhibition ([5]; Compound concentration 0.01 uM): 35%
inhibition ([5]; Compound concentration 0.1 uM): 79%
inhibition ([5]; Compound concentration 1.0 uM): 94%
inhibition ([5]; Compound concentration 10.0 uM): 97%
inhibition [6, 26]: 3%
inhibition ([6]; Compound concentration 0.01 uM): 2%
inhibition ([6]; Compound concentration 0.1 uM): -3%
inhibition ([6]; Compound concentration 1.0 uM): -6%
inhibition ([6]; Compound concentration 10.0 uM): 19%
inhibition [7, 26]: 6%
inhibition ([7]; Compound concentration 0.01 uM): 6%
inhibition ([7]; Compound concentration 0.1 uM): 18%
inhibition ([7]; Compound concentration 1.0 uM): 24%
inhibition ([7]; Compound concentration 10.0 uM): 42%
inhibition [8, 26]: 4%
inhibition ([8]; Compound concentration 0.01 uM): -2%
inhibition ([8]; Compound concentration 0.1 uM): 3%
inhibition ([8]; Compound concentration 1.0 uM): 15%
inhibition ([8]; Compound concentration 10.0 uM): 4%
inhibition [9]: 13.1%
inhibition [10]: 21.6%
inhibition [11]: 5%
inhibition [12]: 3%
inhibition [13]: -6%
inhibition [14]: 6%
inhibition [15]: 8%
inhibition [16]: 21%
inhibition [17]: 12%
inhibition [18]: 32%
inhibition [19]: -4%
inhibition [20]: 11%
inhibition [21]: 4%
inhibition [22]: 3%
inhibition [23]: 11%
inhibition [24]: 6%
inhibition [25]: 10%
